Measured values taken from US4444759A, “GnRH Antagonists II” (The Salk Institute for Biological Studies, priority 1982, dated 1984).
Square brackets hold non-standard residues; d marks the D form. Peptide text beside a SMILES is read from it. dPhe(4-NO2) = N[C@H](Cc1ccc([N+](=O)[O-])cc1)C(=O)O; dPhe(4-NH2) = Nc1ccc(C[C@@H](N)C(=O)O)cc1; dPhe(4-Br) = N[C@H](Cc1ccc(Br)cc1)C(=O)O; dPhe(4-Cl) = N[C@H](Cc1ccc(Cl)cc1)C(=O)O; dPhe(4-F) = N[C@H](Cc1ccc(F)cc1)C(=O)O; d2Nal = N[C@H](Cc1ccc2ccccc2c1)C(=O)O

Test system: LH released by 3 nanomolar GnRH in dissociated rat pituitary cells
Type: cell-based
Method: The peptide is assayed in vitro and in vivo. The in vitro test is made using dissociated rat pituitary cells maintained in culture for 4 days prior to the assay. The levels of LH mediated in response to the application of peptides is assayed by specific radioimmunoassay for rat LH. Control dishes of cells only receive a measure which is 3 nanomolar in GnRH; experimental dishes receive a measure 3 nanomolar in GnRH plus a measure having either the present standard antagonist (for comparison purposes) i.e. [Ac-dehydro Pro^1, 4-F-D-Phe^2, D-Trp^3,6 ]-GnRH or the test peptide in concentrations ranging from 0.01 to 10 nanomolar. The amount of LH secreted in the samples treated only with GnRH is compared with that secreted by the samples treated with the peptide plus GnRH.
The ability of the test peptide to reduce the amount of LH released by 3 nanomolar GnRH is compared to that of the present standard peptide. The results are calculated using 3-5 doses of each of the peptides by the statistical program BIOPROG (provided by D. Rodbard NICHD) and are expressed as a potency relative to the present standard. The standard peptide usually blocks 50% of the LH released by GnRH at less than a ratio of 0.1 [antagonist]/1[GnRH].

Row | Molecule | in vitro Potency relative to [Ac-dehydro Pro1, 4-F-D-Phe2, D-Trp3,6]-GnRH | ratio [antagonist]/1[GnRH] that blocks 50% of the LH released by GnRH (3 nanomolar GnRH, usual value)
1 | CC(=O)N[C@H](Cc1ccc2ccccc2c1)C(=O)N[C@H](Cc1ccc(F)cc1)C(=O)N[C@H](Cc1c[nH]c2ccccc12)C(=O)N[C@@H](CO)C(=O)N[C@@H](Cc1ccc(O)cc1)C(=O)N[C@H](CCCNC(=N)N)C(=O)N[C@@H](CC(C)C)C(=O)N[C@@H](CCCNC(=N)N)C(=O)N1CCC[C@H]1C(=O)NCC(N)=O [Peptide 1, [Ac-β-D-2NAL^1,4-F-D-Phe^2,D-Trp^3, D-Arg^6]-GnRH] (Ac-[d2Nal][dPhe(4-F)][dW]SY[dR]LRPG-NH2) | 0.44 | –
2 | CC(=O)N[C@H](Cc1ccc2ccccc2c1)C(=O)N[C@H](Cc1ccc(F)cc1)C(=O)N[C@H](Cc1c[nH]c2ccccc12)C(=O)N[C@@H](CO)C(=O)N[C@@H](Cc1ccc(O)cc1)C(=O)N[C@H](Cc1ccc(N)cc1)C(=O)N[C@@H](CC(C)C)C(=O)N[C@@H](CCCNC(=N)N)C(=O)N1CCC[C@H]1C(=O)NCC(N)=O [Peptide 2] (Ac-[d2Nal][dPhe(4-F)][dW]SY[dPhe(4-NH2)]LRPG-NH2) | 1.4 | –
3 | CC(=O)N[C@H](Cc1ccc2ccccc2c1)C(=O)N[C@H](Cc1ccc(Cl)cc1)C(=O)N[C@H](Cc1c[nH]c2ccccc12)C(=O)N[C@@H](CO)C(=O)N[C@@H](Cc1ccc(O)cc1)C(=O)N[C@H](CCCNC(=N)N)C(=O)N[C@@H](CC(C)C)C(=O)N[C@@H](CCCNC(=N)N)C(=O)N1CCC[C@H]1C(=O)NCC(N)=O [Peptide 3] (Ac-[d2Nal][dPhe(4-Cl)][dW]SY[dR]LRPG-NH2) | 0.56 | –
4 | CCNC(=O)[C@@H]1CCCN1C(=O)[C@H](CCCNC(=N)N)NC(=O)[C@H](CC(C)C)NC(=O)[C@@H](CCCNC(=N)N)NC(=O)[C@H](Cc1ccc(O)cc1)NC(=O)[C@H](CO)NC(=O)[C@@H](Cc1c[nH]c2ccccc12)NC(=O)[C@@H](Cc1ccc(Cl)cc1)NC(=O)[C@@H](Cc1ccc2ccccc2c1)NC(C)=O [Peptide 4] (Ac-[d2Nal][dPhe(4-Cl)][dW]SY[dR]LRP-NHEt) | 0.38 | –
5 | CCNC(=O)[C@@H]1CCCN1C(=O)[C@H](CCCNC(=N)N)NC(=O)[C@H](CC(C)C)NC(=O)[C@@H](CCCNC(=N)N)NC(=O)[C@H](Cc1ccc(O)cc1)NC(=O)[C@H](CO)NC(=O)[C@@H](Cc1c[nH]c2ccccc12)NC(=O)[C@@H](Cc1ccc([N+](=O)[O-])cc1)NC(=O)[C@@H](Cc1ccc2ccccc2c1)NC(C)=O [Peptide 5] (Ac-[d2Nal][dPhe(4-NO2)][dW]SY[dR]LRP-NHEt) | 0.20 | –
6 | CCNC(=O)[C@@H]1CCCN1C(=O)[C@H](CCCNC(=N)N)NC(=O)[C@H](CC(C)C)NC(=O)[C@@H](CCCNC(=N)N)NC(=O)[C@H](Cc1ccc(O)cc1)NC(=O)[C@H](CO)NC(=O)[C@@H](Cc1c[nH]c2ccccc12)NC(=O)[C@@H](Cc1ccc(Br)cc1)NC(=O)[C@@H](Cc1ccc2ccccc2c1)NC(C)=O [Peptide 6] (Ac-[d2Nal][dPhe(4-Br)][dW]SY[dR]LRP-NHEt) | 0.46 | –
7 | CC(=O)N[C@H](Cc1ccc2ccccc2c1)C(=O)N[C@H](Cc1ccc(F)cc1)C(=O)N[C@H](Cc1c[nH]c2ccccc12)C(=O)N[C@@H](CO)C(=O)N[C@@H](Cc1ccc(O)cc1)C(=O)N[C@H](CCCNC(=N)N)C(=O)N[C@@H](CC(C)C)C(=O)N[C@@H](CCCNC(=N)N)C(=O)N1CCC[C@H]1C(=O)N[C@H](C)C(N)=O [Peptide 7] (Ac-[d2Nal][dPhe(4-F)][dW]SY[dR]LRP[dA]-NH2) | 0.63 | –
8 | [Ac-dehydro Pro^1, 4-F-D-Phe^2, D-Trp^3,6 ]-GnRH [standard peptide, reference compound] | – | < 0.1 [antagonist]/1[GnRH]
